Here are results for 13 compounds from PubChem BioAssay (NCI).

The TGI is the concentration giving total growth inhibition.

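Compound exposure: 48 hours, 5 concentrations, 96-well plates. At the TGI there is no net growth.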 Where a SMILES comes first, the peptide text is derived from it. [ ]: non-standard residue; d: D form. The star is where a group is joined. ξ: configuration not given here. Propanoyl(3-(4-MeO-Ph)) = COc1ccc(CCC(=O)*)cc1; Thr(3ξ) = CC(O)[C@H](N)C(=O)O; dNMeL = CN[C@H](CC(C)C)C(=O)O; ξLac = CC(O)C(=O)O

Among the test systems are K-562 leukemia; UACC-257 melanoma; IGROV1 ovarian; OVCAR-8 ovarian; SR leukemia; BT-549 breast; NCI/ADR-RES ovarian; PC-3 prostate; CAKI-1 renal; SF-539 CNS.
Holding throughout (assay): DTP human tumour cell line panel, 48 h

Take `CC(O)c1cc2c(s1)C(=O)c1scc(C(C)O)c1C2=O` (configuration not stated): the total growth inhibition concentration (TGI) was over 100 µM in the assay on K-562 leukemia; 0.356 µM in the assay with UACC-257 melanoma; 3.63 µM in the assay with IGROV1 ovarian; 0.857 µM in the assay on OVCAR-8 ovarian; over 100 µM with SR leukemia; 0.403 µM with BT-549 breast. The concentration for total growth inhibition (TGI) in the assay on NCI/ADR-RES ovarian was 1.05 µM; with PC-3 prostate it was 3.48 µM; in the assay on CAKI-1 renal it was 2.74 µM.

As for `COC(=O)C(Cc1ccccc1)NC(=O)c1ccc(CNC(=S)NCc2cccc(CNC(=S)NCc3ccccc3)c2)cc1` (configuration not stated), the TGI in the assay on K-562 leukemia, with UACC-257 melanoma, with IGROV1 ovarian, with OVCAR-8 ovarian, in the assay with SR leukemia and with BT-549 breast was over 62.5 µM in each case. Besides, the TGI in the assay on NCI/ADR-RES ovarian, in the assay with PC-3 prostate, in the assay on SF-539 CNS and in the assay on CAKI-1 renal was over 62.5 µM throughout.

For `Cc1c(O)c(=O)ccn1CCc1c[nH]c2ccccc12`, the concentration for total growth inhibition (TGI) was 66.7 µM with K-562 leukemia; 15.5 µM in the assay with UACC-257 melanoma; 73.6 µM in the assay on OVCAR-8 ovarian; 49.2 µM with SR leukemia; over 100 µM with BT-549 breast; 35.6 µM in the assay on NCI/ADR-RES ovarian. For the same compound, the TGI in the assay on PC-3 prostate was over 100 µM; in the assay on SF-539 CNS it was 49.6 µM; in the assay on CAKI-1 renal, 7.25 µM.

As for `COc1cc(C2c3cc4c(cc3OC3(OC)COC(=O)C23)OCO4)cc(OC)c1OC` (configuration not stated), the concentration for total growth inhibition (TGI) with K-562 leukemia is 11 µM; in the assay with UACC-257 melanoma, over 100 µM; with IGROV1 ovarian it was over 100 µM; in the assay with OVCAR-8 ovarian it was 6.12 µM; in the assay with SR leukemia it was 4.8 µM; in the assay on BT-549 breast, over 100 µM. In addition, the total growth inhibition concentration (TGI) with NCI/ADR-RES ovarian was 4.39 µM; in the assay on PC-3 prostate, over 44.9 µM; in the assay with SF-539 CNS, 0.697 µM; with CAKI-1 renal, over 90.2 µM.

On to `COC(=O)[C@@H](NC(=O)[C@@H](CC(C)C)N(C)C(=O)[C@@H]1CCCN1C(=O)C(C)O)C(C)OC(=O)CCc1ccc(OC)cc1` (some centres not stated) (H-[ξLac]P[dNMeL][Thr(3ξ)](Propanoyl(3-(4-MeO-Ph)))-OMe), for which the TGI in the assay on K-562 leukemia, in the assay on UACC-257 melanoma, in the assay with IGROV1 ovarian, in the assay on OVCAR-8 ovarian, in the assay with SR leukemia and with BT-549 breast was over 100 µM throughout. Moreover, the TGI in the assay with NCI/ADR-RES ovarian, with PC-3 prostate, in the assay with SF-539 CNS and in the assay with CAKI-1 renal was over 100 µM throughout.

Turning to `Cn1c(N=[N+]=[N-])cc(=O)n(C)c1=O`, the TGI in the assay on K-562 leukemia, in the assay on UACC-257 melanoma, in the assay with IGROV1 ovarian, in the assay on OVCAR-8 ovarian, in the assay with SR leukemia and in the assay on BT-549 breast was over 100 µM in each case. Moreover, the TGI with NCI/ADR-RES ovarian, in the assay on PC-3 prostate, in the assay on SF-539 CNS and with CAKI-1 renal was over 100 µM in each case.

As for `COc1ccc(-c2nnc(CCCCCCCCc3nnc(-c4ccc(OC)cc4)n3N)n2N)cc1`, the concentration for total growth inhibition (TGI) with K-562 leukemia was over 100 µM; in the assay with UACC-257 melanoma, over 100 µM; with IGROV1 ovarian, over 100 µM; with OVCAR-8 ovarian, over 31.6 µM; in the assay with SR leukemia it was over 100 µM; in the assay with BT-549 breast, over 100 µM. Further, the TGI with NCI/ADR-RES ovarian was over 31.6 µM; with PC-3 prostate it was over 100 µM; in the assay with SF-539 CNS, over 100 µM; with CAKI-1 renal it was over 100 µM.

Consider `COc1ccc(-c2nnc(-c3ccncc3)o2)cc1`, for which the TGI with K-562 leukemia, in the assay with UACC-257 melanoma, with IGROV1 ovarian, with OVCAR-8 ovarian, with SR leukemia and in the assay with BT-549 breast was over 100 µM each time. Further, the TGI in the assay on NCI/ADR-RES ovarian, in the assay on PC-3 prostate, in the assay with SF-539 CNS and in the assay on CAKI-1 renal was over 100 µM in each case.

In the case of `Cc1ccc(C(=O)C2=CN=C3C(=O)N(c4ccccc4)N(C)C3(C)C2=N)cc1` (configuration not stated), the TGI with K-562 leukemia, with UACC-257 melanoma, in the assay on IGROV1 ovarian, in the assay with OVCAR-8 ovarian, in the assay on SR leukemia and in the assay on BT-549 breast was over 100 µM in each case. The TGI in the assay on NCI/ADR-RES ovarian, in the assay on PC-3 prostate, with SF-539 CNS and with CAKI-1 renal was over 100 µM throughout.

As to `COC12OC3CC4(C)C(=CC3OC(OC(C)C1O)C2O)CCC1C4CCC2(C)C(c3ccc(=O)oc3)CCC12O` (configuration not stated), the TGI stood at 0.00718 µM with K-562 leukemia; 0.0117 µM in the assay with UACC-257 melanoma; 0.00389 µM in the assay with IGROV1 ovarian; 0.00318 µM with OVCAR-8 ovarian; 0.00291 µM in the assay with SR leukemia; 0.00413 µM in the assay with BT-549 breast. Moreover, the TGI with NCI/ADR-RES ovarian worked out at 0.00258 µM; in the assay with PC-3 prostate it was 0.00214 µM; in the assay with SF-539 CNS it was 0.00167 µM; in the assay with CAKI-1 renal, 0.00849 µM.

In the case of `CCCC(=O)Nc1cc(/C=C/C(=O)N2CC(CCl)c3c2cc([N+](=O)[O-])c2ccccc32)n(C)c1` (configuration not stated), the TGI in the assay on K-562 leukemia, with UACC-257 melanoma, in the assay on IGROV1 ovarian, in the assay with OVCAR-8 ovarian, in the assay with SR leukemia and with BT-549 breast was over 100 µM each time. Also, the concentration for total growth inhibition (TGI) with NCI/ADR-RES ovarian, in the assay on PC-3 prostate, with SF-539 CNS and in the assay with CAKI-1 renal was over 100 µM throughout.

Turning to `CN1CCN(/C(N)=C(\C#N)C(=O)Nc2ccccc2)CC1`, the TGI in the assay on K-562 leukemia, in the assay on UACC-257 melanoma, with IGROV1 ovarian, in the assay with OVCAR-8 ovarian, in the assay on SR leukemia and with BT-549 breast was over 100 µM in each case. Also, the TGI with NCI/ADR-RES ovarian, in the assay on PC-3 prostate, with SF-539 CNS and in the assay on CAKI-1 renal was over 100 µM each time.

Consider `COc1ccc(NCc2cnc3nc(N)nc(N)c3c2C)cc1`, for which the TGI in the assay with K-562 leukemia, in the assay with UACC-257 melanoma, in the assay on IGROV1 ovarian, with SR leukemia, in the assay with BT-549 breast and in the assay with NCI/ADR-RES ovarian was over 100 µM each time. In addition, the TGI with PC-3 prostate, with SF-539 CNS and in the assay on CAKI-1 renal was over 100 µM in each case.
